In assay [1] the target is T1, Metabotropic glutamate receptor 2 (Rattus norvegicus, UniProt P31421). In words: Displacement of [3H]LY354740 from rat mGluR2 expressed in CHO cells. The assay is classed as cell-based.
Assay [2] addresses T1, Metabotropic glutamate receptor 2. In words: Antagonist activity at rat mGlu2 expressed in CHO cells assessed as inhibition of (1S,3R)-ACPD-stimulated GTPgammaS binding. It is filed as functional, cell-based.
The species entered for assay [3] is Homo sapiens. As to the kind of experiment: Binding affinity to NMDA.
Assay [4] deals with Metabotropic glutamate receptor 1 (Rattus norvegicus) (UniProt P23385). As to the kind of experiment: Inhibition of glutamate-stimulated rat mGlu1a by calcium mobilization assay at 30 uM. The assay is classed as functional. Background: Calcium assays in cells follow changes in intracellular calcium, usually with a dye or a luminescent sensor.
Chain of Metabotropic glutamate receptor 1 (Rattus norvegicus) (P23385 19-1199 limits assumed): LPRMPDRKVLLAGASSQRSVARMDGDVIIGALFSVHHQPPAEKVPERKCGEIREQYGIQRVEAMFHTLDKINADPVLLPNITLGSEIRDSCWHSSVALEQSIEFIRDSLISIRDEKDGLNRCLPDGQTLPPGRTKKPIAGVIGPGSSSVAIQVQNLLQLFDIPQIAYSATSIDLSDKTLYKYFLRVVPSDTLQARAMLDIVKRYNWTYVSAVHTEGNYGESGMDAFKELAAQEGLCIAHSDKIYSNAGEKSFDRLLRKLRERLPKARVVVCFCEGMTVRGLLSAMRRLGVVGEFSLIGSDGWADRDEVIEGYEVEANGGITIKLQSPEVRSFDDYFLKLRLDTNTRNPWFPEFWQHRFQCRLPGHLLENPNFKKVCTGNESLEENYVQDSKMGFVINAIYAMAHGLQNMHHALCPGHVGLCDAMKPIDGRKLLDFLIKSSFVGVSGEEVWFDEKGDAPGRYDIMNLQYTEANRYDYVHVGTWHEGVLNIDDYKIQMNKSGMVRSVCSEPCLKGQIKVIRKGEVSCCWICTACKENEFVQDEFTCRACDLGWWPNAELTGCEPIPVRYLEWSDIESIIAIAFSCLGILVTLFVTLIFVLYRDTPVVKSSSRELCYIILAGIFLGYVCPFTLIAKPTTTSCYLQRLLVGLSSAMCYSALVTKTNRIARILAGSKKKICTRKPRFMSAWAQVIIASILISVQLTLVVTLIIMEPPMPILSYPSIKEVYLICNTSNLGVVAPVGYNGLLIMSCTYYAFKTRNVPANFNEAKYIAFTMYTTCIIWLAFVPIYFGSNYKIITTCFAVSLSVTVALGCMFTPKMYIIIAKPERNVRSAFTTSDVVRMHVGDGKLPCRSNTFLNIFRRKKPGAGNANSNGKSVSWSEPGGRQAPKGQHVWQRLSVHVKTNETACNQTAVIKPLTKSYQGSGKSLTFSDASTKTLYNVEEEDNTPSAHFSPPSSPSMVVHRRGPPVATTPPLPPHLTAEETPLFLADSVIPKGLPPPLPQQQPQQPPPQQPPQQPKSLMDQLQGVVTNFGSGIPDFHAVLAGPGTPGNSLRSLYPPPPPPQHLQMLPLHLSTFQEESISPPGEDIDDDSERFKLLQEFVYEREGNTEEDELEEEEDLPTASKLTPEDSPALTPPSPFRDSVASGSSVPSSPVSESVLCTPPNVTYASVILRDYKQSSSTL
Assay [5] deals with Metabotropic glutamate receptor 5 (Rattus norvegicus) (UniProt P31424). In words: Inhibition of glutamate-stimulated rat mGlu5a by calcium mobilization assay at 30 uM. It is filed as functional.
Chain of Metabotropic glutamate receptor 5 (Rattus norvegicus) (P31424 21-1203 limits assumed): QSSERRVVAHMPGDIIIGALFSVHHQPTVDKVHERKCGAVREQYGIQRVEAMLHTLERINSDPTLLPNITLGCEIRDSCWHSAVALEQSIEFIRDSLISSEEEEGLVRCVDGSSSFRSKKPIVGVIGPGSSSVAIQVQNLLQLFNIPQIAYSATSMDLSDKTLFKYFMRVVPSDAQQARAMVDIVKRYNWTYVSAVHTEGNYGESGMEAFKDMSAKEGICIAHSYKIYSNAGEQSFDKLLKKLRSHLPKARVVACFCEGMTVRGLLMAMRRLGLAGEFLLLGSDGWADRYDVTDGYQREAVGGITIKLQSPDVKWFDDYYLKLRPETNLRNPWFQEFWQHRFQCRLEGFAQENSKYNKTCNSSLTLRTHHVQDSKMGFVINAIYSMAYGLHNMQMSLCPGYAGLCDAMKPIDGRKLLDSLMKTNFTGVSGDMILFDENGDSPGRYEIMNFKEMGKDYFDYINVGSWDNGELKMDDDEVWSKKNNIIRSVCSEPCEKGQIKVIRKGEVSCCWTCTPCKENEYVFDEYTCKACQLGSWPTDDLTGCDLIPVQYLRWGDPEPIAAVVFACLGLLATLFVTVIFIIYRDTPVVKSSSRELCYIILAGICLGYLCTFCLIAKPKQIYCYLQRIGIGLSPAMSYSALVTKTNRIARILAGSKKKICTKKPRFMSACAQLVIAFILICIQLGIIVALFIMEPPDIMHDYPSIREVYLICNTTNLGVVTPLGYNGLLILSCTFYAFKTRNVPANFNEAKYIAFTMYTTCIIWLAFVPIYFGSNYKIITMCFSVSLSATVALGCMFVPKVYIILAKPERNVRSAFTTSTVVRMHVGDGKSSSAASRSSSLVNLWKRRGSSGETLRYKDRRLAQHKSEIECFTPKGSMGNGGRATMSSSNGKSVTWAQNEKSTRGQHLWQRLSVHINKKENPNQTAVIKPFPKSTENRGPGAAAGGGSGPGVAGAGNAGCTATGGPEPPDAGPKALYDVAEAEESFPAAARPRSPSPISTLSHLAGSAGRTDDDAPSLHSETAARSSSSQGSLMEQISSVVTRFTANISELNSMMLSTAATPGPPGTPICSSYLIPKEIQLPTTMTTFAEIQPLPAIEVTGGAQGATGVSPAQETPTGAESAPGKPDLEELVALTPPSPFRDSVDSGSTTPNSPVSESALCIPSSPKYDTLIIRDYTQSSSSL
The species entered for the next assay is Rattus norvegicus. In words: Displacement of [3H]L-AP4 from mGlu8a receptor. On the technique in general: Displacement assays read how much labelled ligand stays bound in the presence of the test substance.
For assay [6], the species on record is Homo sapiens. As to the kind of experiment: Binding affinity to GABAA.
The target of assay [7] is Metabotropic glutamate receptor 2 (Rattus norvegicus) (UniProt P31421). As to the kind of experiment: Antagonist activity at rat mGluR2 expressed in CHO cells co expressing human Kir3.1 assessed as glutamate-induced inward potassium current. It is filed as functional, cell-based.
Chain of Metabotropic glutamate receptor 2 (Rattus norvegicus) (P31421 19-872 limits assumed): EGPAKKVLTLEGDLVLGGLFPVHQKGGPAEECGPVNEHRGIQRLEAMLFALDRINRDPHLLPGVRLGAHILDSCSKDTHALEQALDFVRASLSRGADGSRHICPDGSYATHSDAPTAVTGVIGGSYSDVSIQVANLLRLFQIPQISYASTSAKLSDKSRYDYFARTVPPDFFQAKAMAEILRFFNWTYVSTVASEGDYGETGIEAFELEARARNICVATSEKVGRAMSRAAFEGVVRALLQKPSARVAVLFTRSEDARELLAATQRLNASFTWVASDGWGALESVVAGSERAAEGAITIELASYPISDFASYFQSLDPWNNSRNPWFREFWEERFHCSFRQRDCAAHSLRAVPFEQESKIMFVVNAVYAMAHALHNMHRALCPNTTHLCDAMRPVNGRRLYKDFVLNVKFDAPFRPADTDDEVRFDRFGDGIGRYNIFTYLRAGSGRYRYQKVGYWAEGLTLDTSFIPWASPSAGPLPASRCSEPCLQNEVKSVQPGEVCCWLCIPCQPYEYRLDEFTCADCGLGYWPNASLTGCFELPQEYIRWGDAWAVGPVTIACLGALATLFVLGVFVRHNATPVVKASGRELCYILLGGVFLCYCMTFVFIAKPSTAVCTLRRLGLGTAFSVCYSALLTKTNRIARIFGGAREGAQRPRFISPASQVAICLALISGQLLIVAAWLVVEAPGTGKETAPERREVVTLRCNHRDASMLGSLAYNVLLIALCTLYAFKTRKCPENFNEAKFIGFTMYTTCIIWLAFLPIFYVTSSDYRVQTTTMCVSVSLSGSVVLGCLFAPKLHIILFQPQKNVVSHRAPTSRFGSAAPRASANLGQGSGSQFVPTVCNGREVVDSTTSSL
Assay [8] has as its target Metabotropic glutamate receptor 3 (Rattus norvegicus) (UniProt P31422). As to the kind of experiment: Antagonist activity at rat mGluR3 expressed in CHO cells co expressing human Kir3.2c assessed as glutamate-induced inward potassium current. It is filed as functional, cell-based.
Assay [9] deals with Metabotropic glutamate receptor 2 (Rattus norvegicus) (UniProt P31421). As to the kind of experiment: Displacement of [3H]LY354740 from rat mGluR2 expressed in CHO cells assessed as residual binding. It is filed as cell-based.

Active and inactive are the calls of the source. The rule behind the calls is not given here.

The text below walks through data of ChEMBL document CHEMBL1138280, “Synthesis and characterization of 8-ethynyl-1,3-dihydro-benzo[b][1,4]diazepin-2-one derivatives: new potent non-competitive metabotropic glutamate receptor 2/3 antagonists. Part 1” (Bioorg Med Chem Lett, 2007).

T1 sequence (P31421 whole entry): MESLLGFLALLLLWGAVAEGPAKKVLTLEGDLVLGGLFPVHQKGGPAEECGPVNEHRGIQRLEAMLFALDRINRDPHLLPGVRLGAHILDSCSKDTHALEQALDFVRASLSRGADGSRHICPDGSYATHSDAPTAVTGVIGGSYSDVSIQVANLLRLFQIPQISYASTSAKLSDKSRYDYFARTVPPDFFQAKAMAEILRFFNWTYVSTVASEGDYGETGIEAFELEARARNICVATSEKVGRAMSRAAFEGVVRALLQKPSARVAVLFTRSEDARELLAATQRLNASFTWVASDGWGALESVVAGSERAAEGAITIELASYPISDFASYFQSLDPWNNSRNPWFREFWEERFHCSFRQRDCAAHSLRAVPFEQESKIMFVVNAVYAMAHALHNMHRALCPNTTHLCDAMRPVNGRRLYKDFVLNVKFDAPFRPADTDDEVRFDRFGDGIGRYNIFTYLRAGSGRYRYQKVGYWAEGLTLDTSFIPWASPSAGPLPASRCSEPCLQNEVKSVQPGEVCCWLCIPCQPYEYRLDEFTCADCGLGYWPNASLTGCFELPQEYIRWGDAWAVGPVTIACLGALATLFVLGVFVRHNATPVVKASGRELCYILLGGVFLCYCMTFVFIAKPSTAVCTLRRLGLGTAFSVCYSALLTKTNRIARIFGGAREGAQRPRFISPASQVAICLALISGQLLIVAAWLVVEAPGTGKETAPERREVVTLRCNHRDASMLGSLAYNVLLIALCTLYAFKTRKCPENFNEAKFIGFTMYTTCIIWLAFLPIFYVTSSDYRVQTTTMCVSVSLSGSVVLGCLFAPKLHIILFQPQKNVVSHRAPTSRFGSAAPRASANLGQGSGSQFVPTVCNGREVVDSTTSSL
Chain of Metabotropic glutamate receptor 3 (Rattus norvegicus) (P31422 23-879 limits assumed): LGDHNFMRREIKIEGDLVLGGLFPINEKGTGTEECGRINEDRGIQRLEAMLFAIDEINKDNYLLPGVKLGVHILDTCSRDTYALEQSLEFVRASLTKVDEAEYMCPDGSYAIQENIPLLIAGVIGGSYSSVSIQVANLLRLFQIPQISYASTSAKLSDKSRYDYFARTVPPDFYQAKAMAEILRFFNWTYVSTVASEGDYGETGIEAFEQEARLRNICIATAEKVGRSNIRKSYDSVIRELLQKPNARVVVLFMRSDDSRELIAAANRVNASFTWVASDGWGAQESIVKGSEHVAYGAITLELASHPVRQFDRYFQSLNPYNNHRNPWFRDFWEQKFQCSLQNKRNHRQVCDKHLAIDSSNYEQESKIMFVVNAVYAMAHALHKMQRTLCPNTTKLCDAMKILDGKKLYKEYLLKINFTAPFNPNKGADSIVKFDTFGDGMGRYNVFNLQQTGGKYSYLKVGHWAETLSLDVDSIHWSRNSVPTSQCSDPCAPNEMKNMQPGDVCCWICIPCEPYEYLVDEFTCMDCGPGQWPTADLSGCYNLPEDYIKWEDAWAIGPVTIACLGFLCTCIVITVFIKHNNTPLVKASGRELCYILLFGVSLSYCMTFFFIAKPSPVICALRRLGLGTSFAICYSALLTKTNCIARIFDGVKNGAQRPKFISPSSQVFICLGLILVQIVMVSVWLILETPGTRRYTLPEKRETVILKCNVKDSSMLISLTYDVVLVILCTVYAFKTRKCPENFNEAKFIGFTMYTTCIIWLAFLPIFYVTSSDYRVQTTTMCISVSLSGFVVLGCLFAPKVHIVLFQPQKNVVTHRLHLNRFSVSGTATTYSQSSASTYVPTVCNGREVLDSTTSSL

For orientation: IC50 means the concentration that gives 50% inhibition. In assay [1], `C=C(C)C#Cc1ccc2c(c1)NC(=O)CC(c1cccc(C#N)c1)=N2` showed an IC50 of 400 nM. In assay [1], `N#Cc1cccc(C2=Nc3ccc(C#Cc4cccs4)cc3NC(=O)C2)c1` had an IC50 of 32 nM. Compound `O=C1CC(c2cccc(C(=O)N3CCOCC3)c2)=Nc2ccc(C#Cc3ccccc3)cc2N1` yielded an IC50 in [1] of 360 nM. In assay [1], `Cc1ccc2c(c1)NC(=O)CC(c1cccc(C(F)(F)F)c1)=N2` registered an IC50 of 1530 nM. With `N#Cc1cccc(C2=Nc3ccc(C#Cc4ccc(F)cc4)cc3NC(=O)C2)c1`, the half-maximal inhibitory concentration (IC50) in assay [1] amounted to 34 nM. On the same count and under the same terms, next, `N#Cc1cccc(C2=Nc3cc(N4CCOCC4)c(C#Cc4ccccc4)cc3NC(=O)C2)c1`: 378 nM; `N#CCOc1cc2c(cc1C#Cc1ccccc1)NC(=O)CC(c1cccc(C#N)c1)=N2`: 18 nM; `N#Cc1cccc(C2=Nc3ccc(C#Cc4ccccn4)cc3NC(=O)C2)c1`: 870 nM. Still for that read-out and setting: next, `CN1CCN(C(=O)c2cccc(C3=Nc4ccc(C#Cc5ccccc5)cc4NC(=O)C3)c2)CC1`: 1040 nM. Still for that read-out and setting: the figure for `Cc1ccc(C#Cc2ccc3c(c2)NC(=O)CC(c2cccc(C#N)c2)=N3)cc1` is 64 nM. The compound `N#Cc1cccc(C2=Nc3cc(N4CC[S+]([O-])CC4)c(C#Cc4ccccc4)cc3NC(=O)C2)c1` returned an IC50 in assay [1] of 446 nM. Same read-out and setting: next, `COCCOc1cc2c(cc1C#Cc1ccccc1)NC(=O)CC(c1cccc(C#N)c1)=N2`: 28 nM. Consider `CC(C)O/C(=C\n1cncn1)c1ccc(Cl)cc1Cl`, for which, in assay [2], the IC50 was 6000 nM. As for `N#Cc1cccc(C2=Nc3cc(N4CCSCC4)c(C#Cc4ccccc4)cc3NC(=O)C2)c1`, the IC50 in assay [1] amounted to 40 nM. With `N#Cc1cccc(C2=Nc3ccc(C#Cc4ccc(F)cc4F)cc3NC(=O)C2)c1`, the half-maximal inhibitory concentration (IC50) in assay [1] came out at 480 nM. `COc1ccc(C#Cc2ccc3c(c2)NC(=O)CC(c2cccc(C#N)c2)=N3)cc1`: the IC50 in assay [1] worked out at 68 nM.

In turn, `O=C1CC(c2cccc(I)c2)=Nc2ccc(C#Cc3ccccc3)cc2N1` returned an IC50 in assay [1] of 154 nM. Take `COc1cccc(C2=Nc3ccc(C)cc3NC(=O)C2)c1`: the IC50 in [1] stood at 6580 nM. Still for that read-out and setting: the figure for `N#Cc1cccc(C2=Nc3ccc(C#Cc4ccccc4F)cc3NC(=O)C2)c1` is 30 nM. In assay [1], `N#Cc1cccc(C2=Nc3ccc(C#Cc4ccccc4Cl)cc3NC(=O)C2)c1` registered a concentration for half-maximal inhibition (IC50) of 76 nM. Same read-out and setting: next, `NC(=O)c1cccc(C2=Nc3ccc(C#Cc4ccccc4)cc3NC(=O)C2)c1`: 358 nM.

Turning to `Cc1ccc2c(c1)NC(=O)CC(c1cccc(C#N)c1)=N2`, in assay [1], the IC50 was 2900 nM.

`Cc1ccc2c(c1)NC(=O)CC(c1cccc(Cl)c1)=N2` yielded an IC50 in [1] of 2820 nM.

In assay [1], `O=C1CC(c2cccc(Cl)c2)=Nc2ccc(C#Cc3ccccc3)cc2N1` had an IC50 of 80 nM.

In [1], `CN1CCN(c2cc3c(cc2C#Cc2ccccc2)NC(=O)CC(c2cccc(C#N)c2)=N3)CC1` gave an IC50 of 278 nM. As for `N#Cc1cccc(C2=Nc3ccc(C#Cc4ccccc4)cc3NC(=O)C2)c1`, the outcome (in the assay listed under Homo sapiens [3]; in assay [4]; in assay [5]; in the assay filed under Rattus norvegicus; in the assay filed under Homo sapiens [6]) was inactive. The same compound gave a 50% inhibitory concentration (IC50) in assay [1] of 34 nM. The outcome in [7] and in assay [8] was Active. Besides, in assay [9], the Activity is 25%. Take `CC(C)(C)NC(=O)COc1cc2c(cc1C#Cc1ccccc1)NC(=O)CC(c1cccc(C#N)c1)=N2`: in assay [1], the IC50 came to 26 nM. Compound `N#Cc1cccc(C2=Nc3cc(N4CCS(=O)(=O)CC4)c(C#Cc4ccccc4)cc3NC(=O)C2)c1` showed an IC50 in [1] of 160 nM. The same measure, in the same setting: next, `CC(C)(O)C#Cc1ccc2c(c1)NC(=O)CC(c1cccc(C#N)c1)=N2`: 26000 nM; `N#Cc1cccc(C2=Nc3cc(OCC(N)=O)c(C#Cc4ccccc4)cc3NC(=O)C2)c1`: 2400 nM; `CN(C)c1cc2c(cc1C#Cc1ccccc1)NC(=O)CC(c1cccc(C#N)c1)=N2`: 60 nM. The same measure, in the same setting: next, `O=C1CC(c2cccc(C(F)(F)F)c2)=Nc2ccc(C#Cc3ccccc3)cc2N1`: 268 nM. Take `N#Cc1cccc(C2=Nc3cc(OCC(=O)O)c(C#Cc4ccccc4)cc3NC(=O)C2)c1`: in assay [1], the IC50 worked out at 600 nM. Take `COc1ccc(C2C(C(=O)OCCN(C)C)=C(C)N=C3SC(c4c(Cl)cccc4Cl)=CN32)cc1` (configuration not stated): in assay [2], the IC50 was 30000 nM. `COC1CCN(c2cc3c(cc2C#Cc2ccccc2)NC(=O)CC(c2cccc(C#N)c2)=N3)CC1` had a half-inhibitory concentration (IC50) in [1] of 82 nM. Compound `O=C1CC(c2ccccc2)=Nc2ccc(C#Cc3ccccc3)cc2N1` displayed an IC50 in [1] of 26 nM. `N#Cc1cccc(C2=Nc3ccc(C#Cc4nccs4)cc3NC(=O)C2)c1` displayed an IC50 in assay [1] of 300 nM.

In [1], `COc1cc2c(cc1C#Cc1ccccc1)NC(=O)CC(c1cccc(C#N)c1)=N2` gave an IC50 of 92 nM. `COc1cccc(C2=Nc3ccc(C#Cc4ccccc4)cc3NC(=O)C2)c1` came in with an IC50 in [1] of 962 nM.
